The results in this text go back to ChEMBL document CHEMBL1159287, “Effect of anthraquinone derivatives on lipid peroxidation in rat heart mitochondria: structure-activity relationship” (J Nat Prod, 1995).

SMILES strings stand for the structures. Active and inactive are the calls of the source. The calls are words filed in the database; no cut-off is given here.

In general, IC50 refers to the point on the concentration scale where inhibition reaches its midpoint.

Test [1] in a line: Inhibition of lipid peroxidation in Sprague-Dawley rat heart mitochondria assessed as inhibition of FeSO4-induced oxygen consumption. Format: functional.
Test [2] in a line: Inhibition of lipid peroxidation in Sprague-Dawley rat heart mitochondria assessed as inhibition of FeSO4-induced malondialdehyde formation. Format: functional.
Test [3] is filed under the species Rattus norvegicus. The test is described as follows: Inhibition of lipid peroxidation in Sprague-Dawley rat heart mitochondria assessed as inhibition of FeSO4-induced oxygen consumption up to 0.3 mM relative to control. The format is functional. Also noted: scale not given: the % may be the effect or the level left.
For test [4], the species on record is Rattus norvegicus. In words: Inhibition of lipid peroxidation in Sprague-Dawley rat heart mitochondria assessed as inhibition of FeSO4-induced malondialdehyde formation up to 0.3 mM relative to control. Format: functional. Also noted: scale not given: the % may be the effect or the level left.
In test [5] the test system is PBMC. In words: Inhibition of thymidine uptake in phytohemagglutininin-stimulated human PBMC. The format is functional, cell-based.
Test [6] concerns Radical scavenging activity. In words: Antioxidant activity assessed as DPPH radical scavenging activity after 90 mins. Format: functional. Background: DPPH is a stable violet radical that fades when it is reduced.
The species entered for test [7] is Rattus norvegicus. In words: Antioxidant activity in Sprague-Dawley rat heart mitochondria assessed as inhibition of conjugated diene formation at 1 to 300 uM. The format is functional.

On to `O=C(O[C@@H]1Cc2c(O)cc(O)cc2O[C@@H]1c1ccc(O)c(O)c1)c1cc(O)c(O)c(O)c1` [EPICATECHIN GALLATE], for which the results for the half-inhibitory concentration (IC50) in test [1] and in test [2] were 8.4 µM and 5.4 µM, respectively.

On to `O=C1c2ccc(O)cc2C(=O)c2ccc(O)cc21`, for which the Activity in test [3] and in test [4] was under 50% throughout. In addition, the result in test [5] was Active.

In the case of `O=C1c2cccc(O)c2C(=O)c2cccc(O)c21`, the Activity in test [3] and in test [4] was under 50% in each case.

For the molecule `CCc1ccc2c(c1)C(=O)c1ccccc1C2=O`, the Activity in test [3] and in test [4] was under 50% in each case.

In the case of `O=C1c2ccccc2C(=O)c2ccccc21`, the Activity in test [3] and in test [4] was under 50% throughout.

For `Cc1cc(O)c2c(c1)C(=O)c1cccc(O)c1C2=O`, the Activity in test [3] and in test [4] was under 50% in each case.

In the case of `O=C1OC[C@H]2OC(O)[C@@H]3OC(=O)c4cc(O)c(O)c(O)c4-c4c(cc(O)c(O)c4O)C(=O)O[C@H]3[C@@H]2OC(=O)c2cc(O)c(O)c(O)c2-c2c1cc(O)c(O)c2O` (stereo partly drawn) [PEDUNCULAGIN], the IC50 stood at 7.8 µM in test [1] and 12 µM in test [2].

`O=C1c2ccccc2C(=O)c2c1ccc(O)c2O` [ATHRAQUINONES A]: the IC50 in test [1] turned out to be 63.9 µM; in test [2], 49.5 µM. Further, the outcome in test [6] was Active.

Take `Cc1cc(O)c2c(c1)C(=O)c1cc(O)cc(O[C@@H]3O[C@H](CO)[C@@H](O)[C@H](O)[C@H]3O)c1C2=O`: the Activity in test [3] and in test [4] was under 50% each time.

With `Cc1cc(O)c2c(c1)C(=O)c1cc(O)cc(O)c1C2=O` [EMODIN], the results for the IC50 in test [1] and in test [2] were 12.5 µM and 16.8 µM, respectively. Besides, the result in test [6] and in test [7] was inactive.

Take `Cc1c(C)c2c(c(C)c1O)CC[C@@](C)(CCC[C@H](C)CCC[C@H](C)CCCC(C)C)O2` [ALPHA-TOCOPHEROL]: the IC50 in test [1] came to 102 µM; in test [2] it was 94.7 µM. The outcome in test [6] was Active.

For `O=C(O)c1ccc2c(c1)C(=O)c1ccccc1C2=O`, the Activity in test [3] and in test [4] was under 50% each time.

With `Nc1ccc2c(c1)C(=O)c1ccccc1C2=O`, the Activity in test [3] and in test [4] was under 50% in each case.

On to `O=C(O[C@@H]1Cc2c(O)cc(O)cc2O[C@@H]1c1cc(O)c(O)c(O)c1)c1cc(O)c(O)c(O)c1` [EPIGALOCATECHIN GALLATE], for which the IC50 came out at 12.2 µM in test [1] and 9.4 µM in test [2].

In the case of `COc1cc(O[C@@H]2O[C@H](CO)[C@@H](O)[C@H](O)[C@H]2O)c2c(c1)C(=O)c1cc(C)cc(O)c1C2=O`, the Activity in test [3] and in test [4] was under 50% each time.

On to `O=C(O[C@@H]1Cc2c(O)cc(O)cc2O[C@H]1c1cc(O)c(O)c(O)c1)c1cc(O)c(O)c(O)c1` [GALLOCATECHIN GALLATE], for which the IC50 was 14 µM in test [1] and 8.6 µM in test [2].

Turning to `COc1cc(O)c2c(c1)C(=O)c1cc(C)cc(O)c1C2=O`, the Activity in test [3] and in test [4] was under 50% in each case.

As for `Nc1cccc2c1C(=O)c1ccccc1C2=O`, the Activity in test [3] and in test [4] was under 50% in each case.

Regarding `Oc1cc(O)c2c(c1)O[C@H](c1ccc(O)c(O)c1)[C@H](O)[C@H]2c1c(O)cc(O)c2c1O[C@H](c1ccc(O)c(O)c1)[C@H](O)C2` [PROCYANIDIN B2], the IC50 in test [1] worked out at 11 µM; in test [2], 9 µM.
